Ends that are not written are not given here.
Key:
20S proteasome = biological target: T1, 20S proteasome (Homo sapiens, UniProt P28072+P28074+Q99436); assay: Enzymatic activity of 20S proteasome on aged keratinocytes maintained in culture (AMC-labeled substrates); type: cell-based; conditions: 15 days culture, 1% peptide
T1 construct: After incubation of the cellular lysate with the synthetic substrate specific for the activity studied; endogenous in cells; host or cells: experimentally aged normal human keratinocytes (NHK) from human skin biopsies; activity measured in the cell lysate
Protocol: (§1) Normal Human Keratinocyte (NHK), cells are isolated from human skin biopsies. These cells are maintained in culture in a special keratinocyte-SFM medium (Invitrogen) at 37° C. under a humidified atmosphere of 5% CO2. Aged NHK cells are obtained by performing a series of repeated sub-cultures. Briefly the cells are seeded in 75 cm^2 flasks, at low density and cultured from 5 to 10 days between 2 passages. The cells are treated or not treated by the active principle, by adding the active principle directly into the culture medium 3 times per week. The cells are then maintained under these conditions for 45 days.
Experimentally aged keratinocytes maintained in culture for 15 days are treated with 1% of peptide SEQ ID No. 1. The enzymatic activities of 20S proteasome are then studied. In fact, 20S proteasome is the subunit responsible for enzymatic hydrolysis. Three enzymatic activities may be studied: Trypsin-like, chymotrypsin-like and peptidylglutamyl-peptide hydrolase (PGPH) activity. We are proposing to study these activities by a specific enzymatic assay of each activity.
The aged keratinocytes are maintained in culture for 15 days. The cell treatment is carried out by adding a solution at 1% of peptide SEQ ID No. 1 directly into the medium, renewed 3 times per week for the time of the experiment.
The assay of each activity was carried out by utilizing specific substrates labeled by a fluorescent compound 7-amido-4-methylcoumarin (AMC). After cleavage, the AMC excitation wavelength is 350 nm, the fluorescence is read at 440 nm. The fluorescence intensity is proportional to the quantity of fluorochrome obtained and consequently, this quantity is proportional to the quantity of hydrolyzed substrate.
The synthetic peptide Boc-Leu-Arg-Arg-AMC is specific for trypsin activity. […]
The cells are detached from the support in an extraction buffer. […] After incubation of the cellular lysate with the synthetic substrate specific for the activity studied, fluorescence is read with the Synergy spectrophotometer (BIOTEK, Vermont, USA) at 440 nm.

[1] = system: experimentally aged keratinocytes; assay: Antiaging effect: beta-galactosidase (X-gal) labeling of experimentally aged keratinocytes in culture; type: cell-based, human; conditions: keratinocytes aged 20 days, 1% peptide 3 times per week
Protocol: as §1
A study of the antiaging effect of the active principle was carried out by evaluating the expression of the beta-galactosidase protein on experimentally aged keratinocytes in culture. In fact, beta-galactosidase activity is known to be present in senescent cells while galactosidase activity is not found in pre-senescent, quiescent or immortal cells.
Keratinocytes experimentally aged in 8-well labteck are cultured and maintained for 20 days in the presence or not of 1% peptide of SEQ ID No. 1. The treatment is carried out 3 times per week by direct addition into the medium.
Untreated cells are maintained in culture for the same experiment time and will be used as controls. […]

volunteers = assay: Clinical test: wrinkle and fine line measurement by QUANTIRIDE; type: in vivo, human; parameters: Depth of wrinkles, Measurement / Number of wrinkles, Measurement: unit not given here; conditions: D 23-D 0, 2 mg/cm^2 twice a day, 12 volunteers
Protocol: 12 volunteers aged from 29 to 56 years applied either a placebo or the peptidic active principle of sequence ID No. 1 twice a day, morning and night, at a dose of 2 mg/cm^2 for 24 days. A clinical evaluation of the results enabled several wrinkle and fine line parameters to be measured.
The wrinkle and fine line measurement was carried out by QUANTIRIDE, which is an evaluation method that enables the number, length and depth of wrinkles to be measured by making a replica of the skin before and after treatment by using a silicone polymer.

**Q.** Which results are given for Asp-Cys-Arg-NH2 [SEQ ID No. 1]?
**A.** trypsin-like activity of 20S proteasome, increase (20S proteasome; substrate Boc-Leu-Arg-Arg-AMC): 155.3%; chymotrypsin-like activity of 20S proteasome, increase (20S proteasome; substrate Suc-Leu-Leu-Val-Try-AMC): 130%; peptidylglutamyl-peptide hydrolase activity of 20S proteasome, increase (20S proteasome; substrate Z-Leu-Leu-Glu-AMC): 144.6%; beta-galactosidase activity in treated cells compared to untreated cells [1]: strongly reduced; Depth of wrinkles, Measurement (volunteers): −6.5557; Length of wrinkles, Measurement (volunteers): −0.104 mm; Number of wrinkles, Measurement (volunteers): −9.5833; Depth of wrinkles, % of volunteers with improvement (volunteers; listed as Active peptide): 75%; Length of wrinkles, % of volunteers with improvement (volunteers; listed as Active peptide): 83.3%; Number of wrinkles, % of volunteers with improvement (volunteers; listed as Active peptide): 75%; Depth of wrinkles, % of volunteers with improvement (volunteers; listed as active principle): 75%; Length of wrinkles, % of volunteers with improvement (volunteers; listed as active principle): 83.3%; Number of wrinkles, % of volunteers with improvement (volunteers; listed as active principle): 75%
